Data: the NIST ThermoML archive (doi:10.1021/je500093z)
± gives the expanded uncertainty stated by the source.

Tests used:
[1] = for surface tension liquid-gas: Ring tensiometer; for viscosity / speed of sound / mass density: 101.33 kPa, Liquid; for speed of sound: Pulse-echo method; for mass density: Vibrating tube method
[2] = refractive index (Na D-line) (dimensionless); conditions: 101.33 kPa, Liquid, Standard Abbe refractometry

SMILES | surface tension liquid-gas ([1]; 298.15 K) [mN/m] | viscosity ([1]; 298.15 K) [mPa·s] | speed of sound ([1]; 298.15 K) [m/s] | mass density ([1]; 298.15 K) [kg/m3] | surface tension liquid-gas ([1]; 303.15 K) [mN/m] | viscosity ([1]; 303.15 K) [mPa·s] | speed of sound ([1]; 303.15 K) [m/s] | mass density ([1]; 303.15 K) [kg/m3] | surface tension liquid-gas ([1]; 308.15 K) [mN/m] | viscosity ([1]; 308.15 K) [mPa·s] | speed of sound ([1]; 308.15 K) [m/s] | mass density ([1]; 308.15 K) [kg/m3] | surface tension liquid-gas ([1]; 313.15 K) [mN/m] | viscosity ([1]; 313.15 K) [mPa·s] | speed of sound ([1]; 313.15 K) [m/s] | mass density ([1]; 313.15 K) [kg/m3] | surface tension liquid-gas ([1]; 318.15 K) [mN/m] | viscosity ([1]; 318.15 K) [mPa·s] | speed of sound ([1]; 318.15 K) [m/s] | mass density ([1]; 318.15 K) [kg/m3] | also measured
COS(=O)(=O)[O-].Cn1cc[n+](C)c1 [1,3-dimethylimidazolium methylsulfate] | 57.6 ± 1.1 | 71.7 ± 1.8 | 1811.5 ± 3.1 | 1329 ± 4 | 57.3 ± 1.1 | 57.6 ± 0.97 | 1799.4 ± 3.1 | 1323 ± 4 | 56.8 ± 1.1 | 46.93 ± 0.92 | 1787.3 ± 3.1 | 1319 ± 4 | 56.4 ± 1.1 | 38.81 ± 0.77 | 1775.4 ± 3.1 | 1316 ± 4 | 56 ± 1.1 | 32.52 ± 0.64 | 1763.6 ± 3.1 | 1312 ± 4 | surface tension liquid-gas ([1]; 323.15 K): 55.5 ± 1.1 mN/m; viscosity ([1]; 323.15 K): 27.59 ± 0.55 mPa·s; speed of sound ([1]; 323.15 K): 1751.9 ± 3.1 m/s; mass density ([1]; 323.15 K): 1308 ± 4 kg/m3; surface tension liquid-gas ([1]; 328.15 K): 55.1 ± 1.1 mN/m; viscosity ([1]; 328.15 K): 23.67 ± 0.47 mPa·s; speed of sound ([1]; 328.15 K): 1740.3 ± 3.1 m/s; mass density ([1]; 328.15 K): 1305 ± 4 kg/m3; surface tension liquid-gas ([1]; 333.15 K): 54.8 ± 1.1 mN/m; viscosity ([1]; 333.15 K): 20.5 ± 0.41 mPa·s; speed of sound ([1]; 333.15 K): 1728.8 ± 3.1 m/s; mass density ([1]; 333.15 K): 1302 ± 4 kg/m3; refractive index ([2]; 298.15 K): 1.4817 ± 0.001; refractive index ([2]; 303.15 K): 1.4811 ± 0.001; refractive index ([2]; 308.15 K): 1.4804 ± 0.001; refractive index ([2]; 313.15 K): 1.4797 ± 0.001; refractive index ([2]; 318.15 K): 1.4792 ± 0.001; refractive index ([2]; 323.15 K): 1.4785 ± 0.001; refractive index ([2]; 328.15 K): 1.4779 ± 0.001; refractive index ([2]; 333.15 K): 1.4771 ± 0.001
CCCCn1cc[n+](C)c1.F[P-](F)(F)(F)(F)F [1-butyl-3-methylimidazolium hexafluorophosphate] | 43 ± 0.9 | 273.94 ± 26 | 1443.6 ± 3.1 | 1367 ± 4 | 42.6 ± 0.9 | 203.2 ± 16 | 1431.6 ± 3.1 | 1363 ± 4 | 42.2 ± 0.9 | 153.99 ± 9.7 | 1419.8 ± 3.1 | 1359 ± 4 | 41.9 ± 0.8 | 118.96 ± 5.9 | 1408.3 ± 3.1 | 1355 ± 4 | 41.7 ± 0.8 | 93.44 ± 3.5 | 1396.9 ± 3.1 | 1351 ± 4 | surface tension liquid-gas ([1]; 323.15 K): 41.2 ± 0.8 mN/m; viscosity ([1]; 323.15 K): 74.6 ± 2 mPa·s; speed of sound ([1]; 323.15 K): 1385.8 ± 3.1 m/s; mass density ([1]; 323.15 K): 1347 ± 4 kg/m3; surface tension liquid-gas ([1]; 328.15 K): 40.8 ± 0.8 mN/m; viscosity ([1]; 328.15 K): 60.43 ± 1.1 mPa·s; speed of sound ([1]; 328.15 K): 1374.7 ± 3.1 m/s; mass density ([1]; 328.15 K): 1343 ± 4 kg/m3; surface tension liquid-gas ([1]; 333.15 K): 40.5 ± 0.8 mN/m; viscosity ([1]; 333.15 K): 49.62 ± 0.98 mPa·s; speed of sound ([1]; 333.15 K): 1363.8 ± 3.1 m/s; mass density ([1]; 333.15 K): 1339 ± 4 kg/m3; refractive index ([2]; 298.15 K): 1.4101 ± 0.001; refractive index ([2]; 303.15 K): 1.4085 ± 0.001; refractive index ([2]; 308.15 K): 1.4081 ± 0.001; refractive index ([2]; 313.15 K): 1.407 ± 0.001; refractive index ([2]; 318.15 K): 1.4068 ± 0.001; refractive index ([2]; 323.15 K): 1.4058 ± 0.001; refractive index ([2]; 328.15 K): 1.4053 ± 0.001; refractive index ([2]; 333.15 K): 1.4042 ± 0.001
CCCCn1cc[n+](C)c1.O=S(=O)([O-])O [1-butyl-3-methylimidazolium hydrogen sulfate] | 43.6 ± 1.2 | 439.36 ± 53 | 1689.8 ± 5.1 | 1224 ± 8 | 43.2 ± 1.2 | 321.95 ± 33 | 1676.7 ± 5.1 | 1220 ± 8 | 42.8 ± 1.2 | 240.81 ± 21 | 1664.3 ± 5.1 | 1217 ± 8 | 42.4 ± 1.2 | 183.54 ± 14 | 1652.1 ± 5.1 | 1214 ± 8 | 42 ± 1.2 | 142.55 ± 8.9 | 1640.2 ± 5.1 | 1211 ± 8 | surface tension liquid-gas ([1]; 323.15 K): 41.7 ± 1.2 mN/m; viscosity ([1]; 323.15 K): 112.37 ± 5.7 mPa·s; speed of sound ([1]; 323.15 K): 1628.5 ± 5.1 m/s; mass density ([1]; 323.15 K): 1208 ± 8 kg/m3; surface tension liquid-gas ([1]; 328.15 K): 41.3 ± 1.2 mN/m; viscosity ([1]; 328.15 K): 89.95 ± 3.7 mPa·s; speed of sound ([1]; 328.15 K): 1615.5 ± 5.1 m/s; mass density ([1]; 328.15 K): 1204 ± 8 kg/m3; surface tension liquid-gas ([1]; 333.15 K): 40.9 ± 1.2 mN/m; viscosity ([1]; 333.15 K): 72.88 ± 2.4 mPa·s; speed of sound ([1]; 333.15 K): 1601.5 ± 5.1 m/s; mass density ([1]; 333.15 K): 1201 ± 8 kg/m3; refractive index ([2]; 298.15 K): 1.5043 ± 0.0013; refractive index ([2]; 303.15 K): 1.5 ± 0.0013; refractive index ([2]; 308.15 K): 1.4965 ± 0.0013; refractive index ([2]; 313.15 K): 1.4914 ± 0.0013; refractive index ([2]; 318.15 K): 1.4857 ± 0.0013; refractive index ([2]; 323.15 K): 1.4813 ± 0.0013; refractive index ([2]; 328.15 K): 1.4762 ± 0.0013; refractive index ([2]; 333.15 K): 1.4721 ± 0.0013
CCCC[n+]1ccc(C)cc1.F[B-](F)(F)F [1-butyl-4-methylpyridinium tetrafluoroborate] | 45.4 ± 0.9 | 202.86 ± 16 | 1602.3 ± 3.1 | 1190 ± 3 | 45.1 ± 0.9 | 146.57 ± 8.8 | 1589.7 ± 3.1 | 1186 ± 3 | 44.8 ± 0.9 | 108.7 ± 4.9 | 1577.4 ± 3.1 | 1183 ± 3 | 44.5 ± 0.9 | 82.49 ± 2.6 | 1565.2 ± 3.1 | 1179 ± 3 | 44.2 ± 0.9 | 63.94 ± 1.3 | 1553.2 ± 3.1 | 1176 ± 3 | surface tension liquid-gas ([1]; 323.15 K): 43.9 ± 0.9 mN/m; viscosity ([1]; 323.15 K): 50.51 ± 0.76 mPa·s; speed of sound ([1]; 323.15 K): 1541.2 ± 3.1 m/s; mass density ([1]; 323.15 K): 1173 ± 3 kg/m3; surface tension liquid-gas ([1]; 328.15 K): 43.5 ± 0.9 mN/m; viscosity ([1]; 328.15 K): 40.6 ± 0.8 mPa·s; speed of sound ([1]; 328.15 K): 1529.6 ± 3.1 m/s; mass density ([1]; 328.15 K): 1169 ± 3 kg/m3; surface tension liquid-gas ([1]; 333.15 K): 43.2 ± 0.9 mN/m; viscosity ([1]; 333.15 K): 33.14 ± 0.66 mPa·s; speed of sound ([1]; 333.15 K): 1517.9 ± 3.1 m/s; mass density ([1]; 333.15 K): 1166 ± 3 kg/m3; refractive index ([2]; 298.15 K): 1.4507 ± 0.001; refractive index ([2]; 303.15 K): 1.4502 ± 0.001; refractive index ([2]; 308.15 K): 1.4495 ± 0.001; refractive index ([2]; 313.15 K): 1.4488 ± 0.001; refractive index ([2]; 318.15 K): 1.4482 ± 0.001; refractive index ([2]; 323.15 K): 1.4475 ± 0.001; refractive index ([2]; 328.15 K): 1.4469 ± 0.001; refractive index ([2]; 333.15 K): 1.4463 ± 0.001
